From PMC4207401, “A Novel Inhibitor of Mammalian Triosephosphate Isomerase Found by an In Silico Approach” (International Journal of Medicinal Chemistry, 2014)
Like-named read-outs stand apart in the source and are kept apart here.

Target: T1, triosephosphate isomerase (rabbit muscle TIM) (Oryctolagus cuniculus, UniProt P00939)
T1 construct: gene TPI1; native enzyme from rabbit muscle, commercial reagent (Sigma-Aldrich); homodimer; 1R2R is the rabbit TIM structure used for docking
Experiment: coupled assay with alpha-glycerophosphate dehydrogenase, NADH at […] nm
Type: biochemical

T1 sequence (P00939 2-249): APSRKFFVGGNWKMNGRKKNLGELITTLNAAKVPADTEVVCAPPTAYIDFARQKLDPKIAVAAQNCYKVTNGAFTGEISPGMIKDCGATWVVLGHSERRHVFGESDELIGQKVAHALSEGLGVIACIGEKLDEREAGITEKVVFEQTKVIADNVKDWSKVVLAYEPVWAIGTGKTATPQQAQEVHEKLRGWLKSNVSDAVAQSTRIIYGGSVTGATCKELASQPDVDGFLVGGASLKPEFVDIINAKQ

## Nc1nc2c(c(=O)[nH]1)C(c1ccccc1)C1=C(N2)c2ccccc2C1=O (racemic) [compound 1, 2-amino-5-phenyl-3H-indeno[2′,1′:5,6]pyrido[2,3-d]pyrimidine-4,6(5H,11H)-dione]
read-out: K i
  Ki: 44 µM

## O=C1C2=C(Nc3[nH]c(=O)[nH]c(=O)c3[C@H]2c2ccccc2)c2ccccc21 [compound 2, Compound 2]
glyceraldehyde-3-phosphate 0.4 mM (= Km), NADH 0.1 mM, pH 8.0, Ki calculated from IC50 by Ki = Kapp/(1 + [S]/Km), read-out: 2
  Ki: > 440 µM
